According to patent US6441195B1, “Substituted sulphonylamino(thio) carbonyl compounds” (Bayer Aktiengesellschaft, priority 1995, dated 2002):

Tests used:
Format in all cases: in vivo
[1] = tested on: weeds; experiment: Pre-emergence test (greenhouse), activity against weeds; settings: in words
Summary of the method: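 Three weeks after treatment, % damage relative to untreated plants is scored, 0% meaning no effect. Seeds in normal soil received, roughly one day post-sowing, an aqueous dilution of an acetone/emulsifier concentrate, with the rate per unit area, not concentration, being the relevant dose.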

[2] = tested on: Maize; experiment: Post-emergence test/greenhouse, Maize; settings: greenhouse, after three weeks
Description: (§1) Solvent: 5 parts by weight of acetone
(§2) Emulsifier: 1 part by weight of alkylaryl polyglycol ether
(§3) To produce a suitable preparation of active compound, 1 part by weight of active compound is mixed with the stated amount of solvent, the stated amount of emulsifier is added and the concentrate is diluted with water to the desired concentration.
(§4) Test plants which have a height of 5-15 cm are sprayed with the preparation of the active compound in such a way as to apply the particular amounts of active compound desired per unit area. The concentration of the spray liquor is chosen so that the particular amounts of active compound desired are applied in 2000 l of water/ha.
(§5) After three weeks, the degree of damage to the plants is rated in % damage in comparison to the development of the untreated control.
(§6) 0%=no action (like untreated control)

[3] = tested on: Maize; experiment: Pre-emergence test/Greenhouse, Maize
Summary of the method: (§7)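 Greenhouse pre-emergence: seeds sown in normal soil, soil drenched ~24 h later with an aqueous solvent/emulsifier preparation at a set rate per area. Three weeks on, plant damage scored in % relative to untreated plants.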

[4] = tested on: Amaranthus; experiment: Post-emergence test/greenhouse, Amaranthus; settings: greenhouse, after three weeks
Description: as §1, §2, §3, §4, §5, §6

[5] = tested on: Sorghum; experiment: Post-emergence test/greenhouse, Sorghum; settings: greenhouse, after three weeks
Description: as §1, §2, §3, §4, §5, §6

[6] = tested on: Echinochloa; experiment: Post-emergence test/greenhouse, Echinochloa; settings: greenhouse, after three weeks
Description: as §1, §2, §3, §4, §5, §6

[7] = tested on: Poa; experiment: Pre-emergence test/Greenhouse, Poa; settings: after three weeks
Summary of the method: as §7

[8] = tested on: Solanum; experiment: Pre-emergence test/Greenhouse, Solanum; settings: after three weeks
Summary of the method: as §7

[9] = tested on: Matricaria; experiment: Pre-emergence test/Greenhouse, Matricaria; settings: after three weeks
Summary of the method: as §7

[10] = tested on: Digitaria; experiment: Post-emergence test/greenhouse, Digitaria; settings: greenhouse, after three weeks
Description: as §1, §2, §3, §4, §5, §6

[11] = tested on: Matricaria; experiment: Post-emergence test/greenhouse, Matricaria; settings: greenhouse, after three weeks
Description: as §1, §2, §3, §4, §5, §6

[12] = tested on: Lolium; experiment: Post-emergence test/greenhouse, Lolium; settings: greenhouse, after three weeks
Description: as §1, §2, §3, §4, §5, §6

[13] = tested on: Stellaria; experiment: Post-emergence test/greenhouse, Stellaria; settings: greenhouse, after three weeks
Description: as §1, §2, §3, §4, §5, §6

[14] = tested on: Ambrosia; experiment: Pre-emergence test/Greenhouse, Ambrosia; settings: after three weeks
Summary of the method: as §7

[15] = tested on: Sorghum; experiment: Pre-emergence test/Greenhouse, Sorghum; settings: after three weeks
Summary of the method: as §7

[16] = tested on: Lolium; experiment: Pre-emergence test/Greenhouse, Lolium; settings: after three weeks
Summary of the method: as §7

[17] = tested on: weeds; experiment: Post-emergence test (greenhouse), activity against weeds; settings: in words
Description: as §1, §2, §3, §4, §5, §6

[18] = tested on: Gallium; experiment: Post-emergence test/greenhouse, Gallium; settings: greenhouse, after three weeks
Description: as §1, §2, §3, §4, §5, §6

[19] = tested on: Soya beans; experiment: Pre-emergence test/Greenhouse, Soya beans; settings: in vivo
Summary of the method: as §7

SMILES	activity against weeds [1]	degree of damage, Maize ([2]; 60 g of ai./ha)	degree of damage to the plants (% damage vs untreated control), Maize ([3]; in vivo)	degree of damage, Amaranthus ([4]; 60 g of ai./ha)	degree of damage, Sorghum ([5]; 60 g of ai./ha)	degree of damage, Echinochloa ([6]; 60 g of ai./ha)	degree of damage to the plants (% damage vs untreated control), Poa ([7]; 30 g of ai./ha)	degree of damage to the plants (% damage vs untreated control), Solanum ([8]; 30 g of ai./ha)	degree of damage to the plants (% damage vs untreated control), Matricaria ([9]; 30 g of ai./ha)	degree of damage, Digitaria ([10]; 60 g of ai./ha)	degree of damage, Matricaria ([11]; 60 g of ai./ha)	degree of damage, Lolium ([12]; 60 g of ai./ha)	degree of damage, Stellaria ([13]; 60 g of ai./ha)	degree of damage to the plants (% damage vs untreated control), Ambrosia ([14]; 30 g of ai./ha)	degree of damage to the plants (% damage vs untreated control), Sorghum ([15]; 30 g of ai./ha)	degree of damage to the plants (% damage vs untreated control), Lolium ([16]; 30 g of ai./ha)	activity against weeds [17]	degree of damage, Gallium ([18]; 60 g of ai./ha)	degree of damage to the plants (% damage vs untreated control), Soya beans [19]	further results
CCOc1nn(C(=O)NS(=O)(=O)c2c(C)csc2C(=O)OC)c(=O)n1C1CC1 [Example 30]	very strong activity against weeds	15%	0%	100%	95%	70%	95%	95%	95%	90%	100%	60%	100%	95%	80%	95%	very strong activity against weeds	85%		
CCc1nn(C(=O)NS(=O)(=O)c2c(C)csc2C(=O)OC)c(=O)n1C [Example 5]	very strong activity against weeds		0%				95%	95%	95%					95%	90%	95%	very strong activity against weeds		20%	degree of damage, Maize ([2]; 30 g of ai./ha): 10%; degree of damage, Amaranthus ([4]; 30 g of ai./ha): 100%; degree of damage, Sorghum ([5]; 30 g of ai./ha): 90%; degree of damage, Echinochloa ([6]; 30 g of ai./ha): 80%; degree of damage, Digitaria ([10]; 30 g of ai./ha): 95%; degree of damage, Matricaria ([11]; 30 g of ai./ha): 95%; degree of damage, Lolium ([12]; 30 g of ai./ha): 70%; degree of damage, Stellaria ([13]; 30 g of ai./ha): 90%
CCOC(=O)c1scc(C)c1S(=O)(=O)NC(=O)n1nc(OCC)n(C)c1=O [Example 54]	very strong activity against weeds	30%	0%	100%	95%	95%	95%	95%	95%		100%	95%	100%	95%	80%	95%	very strong activity against weeds	85%		
CCOc1nn(C(=O)NS(=O)(=O)c2c(C)cccc2C(=O)OC(C)C)c(=O)n1C [Example 44]	very strong activity against weeds	50%	30%	100%	100%	90%				60%	95%	70%					very strong activity against weeds	95%	0%	degree of damage to the plants (% damage vs untreated control), Poa ([7]; 8 g of ai./ha): 95%; degree of damage to the plants (% damage vs untreated control), Solanum ([8]; 8 g of ai./ha): 95%; degree of damage to the plants (% damage vs untreated control), Matricaria ([9]; 8 g of ai./ha): 95%; degree of damage to the plants (% damage vs untreated control), Ambrosia ([14]; 8 g of ai./ha): 95%; degree of damage to the plants (% damage vs untreated control), Sorghum ([15]; 8 g of ai./ha): 95%; degree of damage to the plants (% damage vs untreated control), Lolium ([16]; 8 g of ai./ha): 95%
CCOc1nn(C(=O)NS(=O)(=O)c2c(C)csc2C(=O)OC)c(=O)n1C [Example 1, 5-ethoxy-4-methyl-2-(4-methyl-2-methoxycarbonyl-thien-3-yl-sulphonylaminocarbonyl)-2,4-dihydro-3H-1,2,4-triazol-3-one]	very strong activity against weeds						95%	95%	95%					95%	90%	95%	very strong activity against weeds			degree of damage, Maize ([2]; 125 g of ai./ha): 60%; degree of damage to the plants (% damage vs untreated control), Maize ([3]; pre-emergence, 30 g of ai./ha, after three weeks): 10%; degree of damage, Amaranthus ([4]; 125 g of ai./ha): 100%; degree of damage, Sorghum ([5]; 125 g of ai./ha): 95%; degree of damage, Echinochloa ([6]; 125 g of ai./ha): 95%; degree of damage, Digitaria ([10]; 125 g of ai./ha): 95%; degree of damage, Matricaria ([11]; 125 g of ai./ha): 100%; degree of damage, Lolium ([12]; 125 g of ai./ha): 90%; degree of damage, Stellaria ([13]; 125 g of ai./ha): 100%
CCSc1nn(C(=O)NS(=O)(=O)c2c(C)cccc2C(=O)OC)c(=O)n1C [Example 141]	very strong activity against weeds		30%														very strong activity against weeds		0%	degree of damage, Maize ([2]; 30 g of ai./ha): 10%; degree of damage, Amaranthus ([4]; 30 g of ai./ha): 100%; degree of damage, Sorghum ([5]; 30 g of ai./ha): 90%; degree of damage, Echinochloa ([6]; 30 g of ai./ha): 90%; degree of damage to the plants (% damage vs untreated control), Poa ([7]; 15 g of ai./ha): 80%; degree of damage to the plants (% damage vs untreated control), Solanum ([8]; 15 g of ai./ha): 90%; degree of damage to the plants (% damage vs untreated control), Matricaria ([9]; 15 g of ai./ha): 80%; degree of damage, Digitaria ([10]; 30 g of ai./ha): 70%; degree of damage, Matricaria ([11]; 30 g of ai./ha): 70%; degree of damage, Stellaria ([13]; 30 g of ai./ha): 95%; degree of damage to the plants (% damage vs untreated control), Ambrosia ([14]; 15 g of ai./ha): 90%; degree of damage to the plants (% damage vs untreated control), Sorghum ([15]; 15 g of ai./ha): 80%; degree of damage to the plants (% damage vs untreated control), Lolium ([16]; 15 g of ai./ha): 90%; degree of damage, Gallium ([18]; 30 g of ai./ha): 90%
CCOC(=O)c1cccc(C)c1S(=O)(=O)NC(=O)n1nc(SC)n(C)c1=O [Example 7]	very strong activity against weeds	15%	0%		100%	95%				95%	95%	95%	100%				very strong activity against weeds	95%	0%	degree of damage to the plants (% damage vs untreated control), Matricaria ([9]; 60 g of ai./ha): 95%; degree of damage to the plants (% damage vs untreated control), Ambrosia ([14]; 60 g of ai./ha): 95%; degree of damage to the plants (% damage vs untreated control), Sorghum ([15]; 60 g of ai./ha): 95%; degree of damage to the plants (% damage vs untreated control), Lolium ([16]; 60 g of ai./ha): 95%
